The source of these data is patent US11951185B2, “RNA constructs and uses thereof” (BioNTech SE, priority 2020, dated 2024).

Molecules are shown by their SMILES.

A short description of data set [1]: LNP formulation comparison: RNA encapsulation efficiency, apparent pKa, LNP size and polydispersity. In kind it is physicochemical. The conditions noted are these: LNP with surrogate RNA coding for luciferase; among the screened cationic lipids. The protocol: (§1) An exemplary LNP delivery system was developed to effectively and safely deliver therapeutic nucleic acids into the cytosol of various cell types after local administration in vivo. The early formulation work was performed with several promising LNP formulations and surrogate RNA coding for luciferase. The aim of the experiments was to correlate the effect of different ionizable cationic lipids on the efficacy of RNA delivery by LNPs in vivo. Formulations were compared in terms of RNA encapsulation efficiency, apparent pKa, LNP size and polydispersity.

Data set [2] relates to luciferase (Luc) RNA. In words: In vivo screening of LNP pilot batches using luciferase (Luc) RNA, intravenous administration. The conditions noted are these: on the basis of the in vivo screening studies. As for the experimental part: as §1
Based on this the ALC-0315/DSPC/CHOL/ALC-0159 prototype was submitted for in vivo screening. The results presented in FIG. 16 summarize the in vivo testing of two independent pilot batches using luciferase (Luc) RNA.
The formulation screening procedure described above involves intravenous administration resulting in delivery primarily to the liver. The mechanism of LNP uptake into hepatocytes is driven by binding of endogenous apolipoproteins to the LNP followed by receptor-mediated endocytosis e.g. through low density lipoprotein receptors. […] Luc expression was monitored at 4, 24, 72 and 96 hours post administration (FIG. 17).

`CCCCCCCCC(CCCCCC)C(=O)OCCCCCCN(CCCCO)CCCCCCOC(=O)C(CCCCCC)CCCCCCCC` (centres unmarked) [ALC-0315, ((4-hydroxybutyl)azanediyl)bis(hexane-6,1-diyl)bis(2-hexyldecanoate)]: the “physical characteristics regarding particle size, homogeneity, and RNA encapsulation efficiency” value in data set [1] is reported as “suitable physical characteristics”. In addition, the “potency as cationic lipid” value in data set [2] is “highly potent”.
